Test results taken from US8273748B2, “Amino alcohol derivative and immunosuppresive agent having same as an active ingredient” (Kyorin Pharmaceutical Co., Ltd., priority 2006, dated 2012).

Columns and labels:
Format in all cases: in vivo
[1] = Effect on rat lung weight; conditions: Wistar rats, lungs extracted 6 hours later
Method: Crlj:Wistar rats (male) 5 to 8 weeks old were used in the experiment. An aqueous solution of the test compounds was respectively orally administered in an amount of 0.5 mL per 100 g of rat body weight. The lungs were extracted 6 hours later, and the lung weight was measured.

[2] = test system: mouse host-versus-graft rejection reaction; test: Inhibition activity on mouse host-versus-graft rejection reaction (popliteal lymph node weight); conditions: ip, inhibition of popliteal lymph node weight increase, C3H/HeN mice, intraperitoneal once per day, 4 times
Method: Experiment example 2 was carried out by referring to the methods described in Transplantation, Vol. 55, No. 3, pp. 578 to 591, 1993. The spleens from BALB/c male mice which were6 to 23 weeks old (Japan SLC) were collected. The spleens were extracted in RPMI-1640 medium (Sigma), and then turned into a spleen cell suspension by grinding them with 2 glass slides and then passing the ground matter through a strainer (70 microns, Falcon). The spleen cell suspensions were centrifuged, and the supernatants were removed. Then, an ammonium chloride-tris isotonic buffer solution was added, and the red blood cells were hemolyzed. After centrifuging and washing 3 times with RPMI-1640 medium, the cells were suspended in RPMI-1640 medium. Mitomycin C (Kyowa Hakko) was added thereto so that the final concentration was 25 μg/mL, and the cells were incubated for 30 minutes at 37° C. under 5% CO2. After centrifuging and washing 3 times with RPMI-1640 medium, the cells were suspended in RPMI-1640 medium so that the concentration was 2.5×10^8 cells/mL. These cells were used as a stimulator cell suspension. 20 μL (5×10^6 cells/mouse) of the stimulator cell suspension was injected subcutaneously into the right hind-foodpad of C3H/HeN male mice which were6 to 11 weeks old (Clea Japan) using a 27G needle and a microsyringe (Hamilton). For the normal control group, RPMI-1640 medium only was injected. After 4 days, the right popliteal lymph nodes were extracted, and their weight was measured using Mettler AT201 electronic scales (Mettler Toledo). From the day of the stimulator cell suspensions being injected to 3 days thereafter, the test compounds were intraperitoneally administered on consecutive days once per day, for a total of 4 times. For the control group, only a solvent having the same composition as that used in the preparation of the test compounds was administered in the same manner. As the solvent, basically a physiological saline containing 0.5% DMSO was used (suitably adjusted according to the solubility of the compound). The inhibition ratio was calculated using the following equation. [formula]

[3] = test system: white blood cells in mouse peripheral blood; test: Activity on total number of white blood cells in mouse peripheral blood; conditions: BALB/c mice, blood collected 6 hours after administration
Method: The test compounds were dissolved or suspended in DMSO, and then a physiological saline solution was added to make dosing solutions (DMSO final concentration 1%). If the dosing solutions were not in a dissolved or a uniform suspended state, Tween 80 was added so that the final concentration thereof was 0.01 to 0.1%. The resultant solutions were then sonicated to form a fine suspension. These test compound solutions were intraperitoneally administered in respective amounts of 0.1 mL or 0.2 mL per 10 g of body weight to BALB/cCrSlc male mice (8 to 14 weeks old, Japan SLC). For the control group, only a solvent having the same composition as that used in the preparation of the test compounds was administered in the same manner. Six hours after administration of the test compound solutions, blood was collected from the postcava under ether anesthesia (10 μL of 10% EDTA was added as an anticoagulant). Measurement of the total number of white blood cells was carried out using the automated blood cell counting apparatus Sysmex F-820 (Sysmex). Here, compounds having an inhibition ratio of 60% or more were marked as “+++”, compounds having an inhibition ratio of less than 60% but more than or equal to 50% were marked as “++”, and compounds having an inhibition ratio of less than 50% but more than or equal to 40% were marked as “+”. Furthermore, the inhibition ratios are the results from a dose of 0.3 mg/kg (“[ ]” are the results from 3 mg/kg).

[4] = test system: allogenic skin graft for rats; test: Rat skin graft model (allogenic skin graft survival); conditions: for MST: oral administration once a day
Method: Using a rat skin graft model, activity on the rejection reaction was investigated.
Skin from the abdomen of a LEW/CrlCrlj rat serving as the donor (male, 5 weeks old, Japan Charles River) was peeled away, and the panniculus carnosus muscule layer under the skin was removed. Then, a 1.8 cm×1.8 cm skin specimen (graft) was prepared. Next, a F344/DuCrlCrlj rat serving as the recipient (male, 5 weeks old, Japan Charles River) was anesthetized by intraperitoneal administration of 40 mg/kg of sodium pentobarbital (nembutal injection, Dainippon Sumitomo Pharma). The hair of the back of the rat was shorn off by electric clippers, and then the remaining hair was further shaved off using a razor. Then, a 1.8 cm×1.8 cm mark was made on the back of the rat, and a shallow cut was made along the mark with a scalpel. Next, the skin was peeled away along this cut by tweezers to produce a graft bed. Several drops of sterile physiological saline solution (Otsuka normal saline, Otsuka Pharmaceutical) were dropped onto the graft bed, and then wiped away with gauze. Several drops of penicillin (crystalline penicillin GpotassiumMeiji, Meiji Seika) were then dropped thereon. Next, the graft was placed on the graft bed. After absorbing excess moisture with sterile gauze, a first-aid bandaid was stuck over the graft. Furthermore, an adhesive bandage was wrapped around the trunk of the rat. On the third day after the operation, a new adhesive bandage was wrapped thereover. On the fifth day after the operation, the bandaid and the bandages were cut open with scissors and removed. Observation of the graft was carried out on consecutive days from when the bandaid was removed (from the fifth day). A determination of graft rejection was made when 90% or more of the graft had died and tuned brown. The number of days from grafting until rejection was confirmed was taken as the survival period. The mean value of the survival period for each group was calculated as the mean survival time (MST). Investigation was carried out with 5 animals per group. All of the rats were housed in individual cages. The test compounds were dissolved in ultra-pure water, and were orally administered once a day, on consecutive days, from the graft day. For the control group, ultra-pure water was administered in the same manner.

[5] = dose 3 mg/kg (values in [ ]) intraperitoneal

Structure (SMILES)	ED50 [2]	Inhibition Ratio ([3]; dose 0.3 mg/kg intraperitoneal)	other results
C[C@](N)(CO)CCCc1ccc(Oc2cccc(C(F)(F)F)c2)cc1Cl.Cl [Example 26, (R)-2-amino-5-[2-chloro-4-(3-trifluoromethylphenoxy)phenyl]-2-methylpentan-1-ol hydrochloride]	0.1 to 1 mg/kg	–	Effect on lung weight ([1]; up to a dose of 30 mg/kg oral): no effects whatsoever on lung weight; Inhibition Ratio [3, 5]: [+] (inhibition ratio of less than 50% but more than or equal to 40%)
C[C@](N)(CO)CCCc1ccc(Sc2cccc(C(F)(F)F)c2)cc1Cl.Cl [Example 27, (R)-2-amino-5-[2-chloro-4-(3-trifluoromethylphenylthio)phenyl]-2-methylpentan-1-ol hydrochloride]	< 0.1 mg/kg	+ (inhibition ratio of less than 50% but more than or equal to 40%)	Effect on lung weight ([1]; up to a dose of 100 mg/kg oral): no effects whatsoever on lung weight; MST ([4]; 3 mg/kg): 11.8 days; MST ([4]; 10 mg/kg): 14 days; MST ([4]; 30 mg/kg): 20.4< days; Survival period extension effect of the graft ([4]; individual administration, oral): survival period extension effect of the graft was found
CCc1cccc(Sc2ccc(CCC[C@@](C)(N)CO)c(Cl)c2)c1.Cl [Example 32, (R)-2-amino-5-[2-chloro-4-(3-ethylphenylthio)phenyl]-2-methylpentan-1-ol hydrochloride]	0.1 to 1 mg/kg	–	–
C[C@](N)(CO)CCc1ccc(Oc2cccc(C(F)(F)F)c2)cc1Cl.Cl [Example 28, (R)-2-amino-4-[2-chloro-4-(3-trifluoromethylphenoxy)phenyl]-2-methylbutan-1-ol hydrochloride]	1 to 10 mg/kg	++ (inhibition ratio of less than 60% but more than or equal to 50%)	–
CCC[C@](N)(CO)CCCc1ccc(Sc2cccc(C(F)(F)F)c2)cc1Cl.Cl [Example 36, (R)-2-amino-5-[2-chloro-4-(3-trifluoromethylphenylthio)phenyl]-2-propylpentan-1-ol hydrochloride]	0.1 to 1 mg/kg	–	Inhibition Ratio [3, 5]: [++] (inhibition ratio of less than 60% but more than or equal to 50%)
C[C@](N)(CO)CCc1ccc(Sc2cccc(C(F)(F)F)c2)cc1Cl.Cl [Example 29, (R)-2-amino-4-[2-chloro-4-(3-trifluoromethylphenylthio)phenyl]-2-methylbutan-1-ol hydrochloride]	0.1 to 1 mg/kg	+++ (inhibition ratio of 60% or more)	–
C[C@](N)(CO)CCCc1ccc(Sc2cccc(C(F)(F)F)c2)cc1F.Cl [Example 35, (R)-2-amino-5-[2-fluoro-4-(3-trifluoromethylphenylthio)phenyl]-2-methylpentan-1-ol hydrochloride]	0.1 to 1 mg/kg	–	–
